Results published in patent US5494913A, “Antifungal compounds” (Schering Corporation, priority 1994, dated 1996).
In brackets after ≈: the same amount, converted by molar mass.

Experiments:
[1] = test system: C. albicans & C. tropicalis; assay: In vitro antifungal MIC in SDB (pH 5.7), C. albicans & C. tropicalis; assay type: cell-based; conditions: 8 strains; for MIC: 48/72 hr, read-out: Geometric means MICs, 48/72 hr
Method: (§1) Compounds A and B of the invention were tested in standard antifungal assays and data from these tests appear in the Table 13 just below.
(§2) In vitro activity of compounds
(§3) A and B and Albofungin against various fungi
(§4) Geometric means MICs μg/ml, 48/72 hr)
(§5) SDB means Sabourand dextrose broth, pH 5.7;

Other Candida = assay: In vitro antifungal MIC in SDB (pH 5.7), other Candida; assay type: cell-based; conditions: 6 strains; for MIC: 48/72 hr, read-out: Geometric means MICs, 48/72 hr
Method: as §1, §2, §3, §4, §5

Dermatophytes = assay: In vitro antifungal MIC in SDB (pH 5.7), dermatophytes; assay type: cell-based; conditions: 5 strains; for MIC: 48/72 hr, read-out: Geometric means MICs, 48/72 hr
Method: as §1, §2, §3, §4, §5

Aspergillus = assay: In vitro antifungal MIC in SDB (pH 5.7), Aspergillus; assay type: cell-based; conditions: 3 strains; for MIC: 48/72 hr, read-out: Geometric means MICs, 48/72 hr
Method: as §1, §2, §3, §4, §5

[2] = test system: C. albicans & C. tropicalis; assay: In vitro antifungal MIC in EMEM (pH 7.0), C. albicans & C. tropicalis; assay type: cell-based; conditions: 9 strains; for MIC: 48/72 hr, read-out: Geometric means MICs, 48/72 hr
Method: as §1, §2, §3, §4
EMEM means Eagle's minimum essential medium, pH 7.0.

[3] = test system: various yeasts and dermatophytes; assay: Antifungal MIC against various yeasts and dermatophytes (summary statement); assay type: cell-based; conditions: read-out: MIC values
Method: as §1

In vivo LD50, iv = conditions: mpk means mg. per kg., range for compounds A and B, printed with "about"

CCC(C)c1cc2c(Cl)c3c(c(O)c2c(=O)n1N)-c1c(O)c2c(c4c1C(C3)OCO4)OC1C(OC)C=CC(O)C1C2=O (stereo not drawn) [Compound A]
MIC [1]: < 0.000386 µg/mL
MIC (Other Candida): < 0.00128 µg/mL
MIC (Dermatophytes): 0.00764 µg/mL (≈ 0.0128 µM)
MIC (Aspergillus): 0.0248 µg/mL (≈ 0.0415 µM)
MIC [2]: < 2.16 µg/mL
MIC [3]: ≤ 0.000386 µg/mL
LD50 (In vivo LD50, iv): 1 to 25 mg/kg

Albofungin [reference compound]
Geometric means MICs, 48/72 hr [1]: < 0.00055 µg/mL
Geometric means MICs, 48/72 hr (Other Candida): < 0.00099 µg/mL
Geometric means MICs, 48/72 hr (Dermatophytes): 0.0359 µg/mL
Geometric means MICs, 48/72 hr (Aspergillus): 0.125 µg/mL
Geometric means MICs, 48/72 hr [2]: < 0.0182 µg/mL

CCC(C)c1cc2cc3c(c(O)c2c(=O)n1C)-c1c(O)c2c(c(OC)c1CC3)O[C@H]1[C@@H](C2=O)[C@@H](O)C=C[C@H]1O (stereo partly drawn) [Compound B]
MIC [1]: 0.017 µg/mL (≈ 0.0319 µM)
MIC (Other Candida): 0.0312 µg/mL (≈ 0.0585 µM)
MIC (Dermatophytes): 0.144 µg/mL (≈ 0.269 µM)
MIC (Aspergillus): 0.794 µg/mL (≈ 1.49 µM)
MIC [2]: < 0.135 µg/mL
LD50 (In vivo LD50, iv): 1 to 25 mg/kg
